Data on 26 compounds can be found in patent publication US12344610B2, “APOL1 inhibitors and methods of use” (Maze Therapeutics, Inc., priority 2022, dated 2025).

One may read the AC50 as the midpoint of the concentration-response curve, whichever way the signal moves.

The target in the test is T1, APOL1 G2 (Homo sapiens, UniProt O14791, DEL388-389).
T1 construct: expressed in transfected cells; host or cells: HEK293 T-REx clonal line stably expressing GCaMP6f (HEK T-REx/GCaMP6f/APOL1 G2 K6.3), doxycycline induced
T1 sequence (O14791 with tags, fused parts or gaps DEL388-389): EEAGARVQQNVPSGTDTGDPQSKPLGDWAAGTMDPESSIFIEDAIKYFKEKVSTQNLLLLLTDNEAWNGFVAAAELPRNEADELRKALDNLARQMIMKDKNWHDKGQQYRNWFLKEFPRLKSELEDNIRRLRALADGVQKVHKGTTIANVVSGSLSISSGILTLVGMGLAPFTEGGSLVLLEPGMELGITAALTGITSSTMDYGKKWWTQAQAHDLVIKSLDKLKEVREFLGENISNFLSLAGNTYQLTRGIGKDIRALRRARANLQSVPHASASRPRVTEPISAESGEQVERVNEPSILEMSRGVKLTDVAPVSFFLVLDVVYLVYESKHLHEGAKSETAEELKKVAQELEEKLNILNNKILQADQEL
Kind of test: APOL1-mediated calcium transport (calcium influx) assay, HEK T-REx/GCaMP6f/APOL1 G2 K6.3 cells, FLIPR TETRA. The test is classed as cell-based. Particulars: prevention of calcium influx; geometric mean of at least 2 assay runs; † = average of a technical replicate from a single assay run. Summed up: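 A HEK293 T-REx clone stably expressing GCaMP6f had APOL1 G2 induced with doxycycline (20 ng/mL solution added) for 6 h. Cells were then washed into Ca2+-free Tyrode's buffer (pH 7.4) and preincubated with compounds (duplicate 8-point) for 10 min at room temperature. Ca2+ injection to 5 mM final produced FLIPR GCaMP fluorescence, giving AC50 for influx inhibition (geometric mean, ≥2 runs).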
With `NC1CN(C(=O)c2ccc(OCCN3CCC4(CC3)C(=O)Nc3ccc(Cl)cc34)cc2F)C1` [Compound 236, 1′-{2-[4-(3-aminoazetidine-1-carbonyl)-3-fluorophenoxy]ethyl}-5-chloro-1,2-dihydrospiro[indole-3,4′-piperidin]-2-one], the AC50 was found to be 634 nM.
Under `CS(=O)(=O)NC1CN(C(=O)c2ccc(OCCN3CCC4(CC3)C(=O)Nc3ccc(Cl)cc34)cc2F)C1` [Compound 237, N-{1-[4-(2-{5-chloro-2-oxo-1,2-dihydrospiro[indole-3,4′-piperidin]-1′-yl}ethoxy)-2-fluorobenzoyl]azetidin-3-yl} methanesulfonamide] stands 3310 nM; under `N#Cc1ccc2c(c1)C1(CCN(CCOc3ccc(C(N)=O)c(F)c3)CC1)C(=O)N2` [Compound 238, 4-(2-{5-cyano-2-oxo-1,2-dihydrospiro[indole-3,4′-piperidin]-1′-yl}ethoxy)-2-fluorobenzamide], 285 nM.
Under `O=C(c1ccc(OCCN2CCC3(CC2)C(=O)Nc2ccc(Cl)cc23)cc1F)N1CC2(C1)CS(=O)(=O)C2` [Compound 239, 6-[4-(2-{5-chloro-2-oxo-1,2-dihydrospiro[indole-3,4′-piperidin]-1′-yl}ethoxy)-2-fluorobenzoyl]-2λ^6-thia-6-azaspiro[3.3]heptane-2,2-dione] stands 1540 nM.
For the compound `Cc1n[nH]cc1-c1ccc(OCCN2CCC3(CC2)C(=O)Nc2ccc(Cl)cc23)cc1` [Compound 244, 5-chloro-1′-{2-[4-(5-methyl-1H-pyrazol-4-yl)phenoxy]ethyl}-1,2-dihydrospiro[indole-3,4′-piperidin]-2-one], the AC50 was determined as 1060 nM.
As for `CNC(=O)N1CCc2cc(OCCN3CCC4(CC3)C(=O)Nc3ccc(Cl)cc34)ccc2C1` [Compound 245, 6-(2-{5-chloro-2-oxo-1,2-dihydrospiro[indole-3,4′-piperidin]-1′-yl}ethoxy)-N-methyl-1,2,3,4-tetrahydroisoquinoline-2-carboxamide], the figure is 718 nM.
As for `Cn1c(=O)[nH]c2cc(OCCN3CCC4(CC3)C(=O)Nc3ccc(Cl)cc34)cnc21` [Compound 247, 5-chloro-1′-[2-({3-methyl-2-oxo-1H,2H,3H-imidazo[4,5-b]pyridin-6-yl}oxy)ethyl]-1,2-dihydrospiro[indole-3,4′-piperidin]-2-one], the concentration at half-maximal activity (AC50) stood at 806 nM.
Under `O=C1Nc2ccc(Cl)cc2C12CCN(CCOc1ccc(S(=O)(=O)C3(CO)CC3)nc1)CC2` [Compound 248, 5-chloro-1′-{2-[(6-{[1-(hydroxymethyl)cyclopropyl]sulfonyl}pyridin-3-yl)oxy]ethyl}-1,2-dihydrospiro[indole-3,4′-piperidin]-2-one] stands 820 nM; under `NC(=O)c1ccc(OCCN2CCC3(CC2)C(=O)Nc2ccc(Cl)cc23)cc1C(F)F` [Compound 249, 4-(2-{5-chloro-2-oxo-1,2-dihydrospiro[indole-3,4′-piperidin]-1′-yl}ethoxy)-2-(difluoromethyl)benzamide], 433 nM; under `N#Cc1ccc2c(c1)C1(CCN(CCOc3ccc(C(N)=O)c(C(F)F)c3)CC1)C(=O)N2` [Compound 250, 4-(2-{5-cyano-2-oxo-1,2-dihydrospiro[indole-3,4′-piperidin]-1′-yl}ethoxy)-2-(difluoromethyl)benzamide], 559 nM.
On to `CN1C(=O)C2(CCN(CCOc3ccc(C4(S(C)(=O)=O)COC4)cc3)CC2)c2cc(C#N)ccc21` [Compound 251, 1′-{2-[4-(3-methanesulfonyloxetan-3-yl)phenoxy]ethyl}-1-methyl-2-oxo-1,2-dihydrospiro[indole-3,4′-piperidine]-5-carbonitrile], for which the AC50 amounted to 546 nM.
Turning to `CN(C)C(=O)C1(c2ccc(OCCN3CCC4(CC3)C(=O)Nc3ccc(C#N)cc34)cc2)COC1` [Compound 254, 3-[4-(2-{5-cyano-2-oxo-1,2-dihydrospiro[indole-3,4′-piperidin]-1′-yl}ethoxy)phenyl]-N,N-dimethyloxetane-3-carboxamide], the AC50 came out at 898 nM.
Take `CNC(=O)C1(c2ccc(OCCN3CCC4(CC3)C(=O)Nc3ccc(C#N)cc34)cc2)COC1` [Compound 255, 3-[4-(2-{5-cyano-2-oxo-1,2-dihydrospiro[indole-3,4′-piperidin]-1′-yl}ethoxy)phenyl]-N-methyloxetane-3-carboxamide]: the AC50 was found to be 2640 nM.
As for `O=C(c1c(F)cc(OCCN2CCC3(CC2)C(=O)Nc2ccc(Cl)cc23)cc1F)N1CCS(=O)(=O)CC1` [Compound 259, 4-[4-(2-{5-chloro-2-oxo-1,2-dihydrospiro[indole-3,4′-piperidin]-1′-yl}ethoxy)-2,6-difluorobenzoyl]-1λ^6-thiomorpholine-1,1-dione], the figure is 651 nM; as for `CN1C(=O)C2(CCN(CCOc3cc(F)c(C(=O)N4CCS(=O)(=O)CC4)c(F)c3)CC2)c2cc(C#N)ccc21` [Compound 260, 1′-{2-[4-(1,1-dioxo-1λ^6-thiomorpholine-4-carbonyl)-3,5-difluorophenoxy]ethyl}-1-methyl-2-oxo-1,2-dihydrospiro[indole-3,4′-piperidine]-5-carbonitrile], 1380 nM; as for `CN1C(=O)C2(CCN(CCOc3ccc(C(=O)N4CCS(=O)(=O)CC4)c(C(F)(F)F)c3)CC2)c2cc(C#N)ccc21` [Compound 261, 1′-{2-[4-(1,1-dioxo-1λ^6-thiomorpholine-4-carbonyl)-3-(trifluoromethyl)phenoxy]ethyl}-1-methyl-2-oxo-1,2-dihydrospiro[indole-3,4′-piperidine]-5-carbonitrile], 1460 nM.
Turning to `CS(=O)(=O)c1ccc(OCCN2CCC3(CC2)C(=O)N(CCO)c2ccc(Cl)cc23)cc1C(F)F` [Compound 265, 5-chloro-1′-{2-[3-(difluoromethyl)-4-methanesulfonylphenoxy]ethyl}-1-(2-hydroxyethyl)-1,2-dihydrospiro[indole-3,4′-piperidin]-2-one], the AC50 was found to be 697 nM.
Under `CS(=O)(=O)c1ccc(OCCN2CCC3(CC2)C(=O)N(CCO)c2ccc(C#N)cc23)cc1C(F)F` [Compound 266, 1′-{2-[3-(difluoromethyl)-4-methanesulfonylphenoxy]ethyl}-1-(2-hydroxyethyl)-2-oxo-1,2-dihydrospiro[indole-3,4′-piperidine]-5-carbonitrile] stands 862 nM; under `O=C(c1ccc(OCCN2CCC3(CC2)C(=O)Nc2ccc(Cl)cc23)cc1C(F)(F)F)N1CCS(=O)(=O)CC1` [Compound 272, 4-[4-(2-{5-chloro-2-oxo-1,2-dihydrospiro[indole-3,4′-piperidin]-1′-yl}ethoxy)-2-(trifluoromethyl)benzoyl]-1λ^6-thiomorpholine-1,1-dione], 921 nM.
With `CS(=O)(=O)N1CC2(CN(C(=O)c3ccc(OCCN4CCC5(CC4)C(=O)Nc4ccc(Cl)cc45)cc3F)C2)C1` [Compound 273, 5-chloro-1′-[2-(3-fluoro-4-{6-methanesulfonyl-2,6-diazaspiro[3.3]heptane-2-carbonyl}phenoxy)ethyl]-1,2-dihydrospiro[indole-3,4′-piperidin]-2-one], the AC50 came to 2100 nM.
Regarding `C[C@]1(O)C[C@@H](N2C(=O)CCc3cc(OCCN4CCC5(CC4)C(=O)Nc4ccc(C(F)F)cc45)cnc32)C1` [Compound 274, 5-(difluoromethyl)-1′-[2-({7-oxo-8-[(cis)-3-hydroxy-3-methylcyclobutyl]-5,6,7,8-tetrahydro-1,8-naphthyridin-3-yl}oxy)ethyl]-1,2-dihydrospiro[indole-3,4′-piperidin]-2-one], the AC50 worked out at 722 nM.
Turning to `C[C@]1(O)C[C@@H](N2C(=O)CCc3cc(OCCN4CCC5(CC4)C(=O)Nc4ccc(Cl)cc45)cnc32)C1` [Compound 275, 5-chloro-1′-[2-({7-oxo-8-[(cis)-3-hydroxy-3-methylcyclobutyl]-5,6,7,8-tetrahydro-1,8-naphthyridin-3-yl}oxy)ethyl]-1,2-dihydrospiro[indole-3,4′-piperidin]-2-one], the AC50 stood at 640 nM.
As to `CS(=O)(=O)C1(c2ncc(OCCN3CCC4(CC3)C(=O)Nc3ccc(Cl)cc34)cn2)COC1` [Compound 276, 5-chloro-1′-(2-{[2-(3-methanesulfonyloxetan-3-yl)pyrimidin-5-yl]oxy}ethyl)-1,2-dihydrospiro[indole-3,4′-piperidin]-2-one], the AC50 was found to be 1750 nM.
Take `CS(=O)(=O)C1(c2ncc(OCCN3CCC4(CC3)C(=O)Nc3ccc(C#N)cc34)cc2F)CC1` [Compound 283, 1′-(2-{[5-fluoro-6-(1-methanesulfonylcyclopropyl)pyridin-3-yl]oxy}ethyl)-2-oxo-1,2-dihydrospiro[indole-3,4′-piperidine]-5-carbonitrile]: the AC50 turned out to be 2000 nM.
As for `CC(O)c1ncc(OCCN2CCC3(CC2)C(=O)Nc2ccc(Cl)cc23)cn1` (centres unmarked) [Compound 284, 5-chloro-1′-(2-{[2-(1-hydroxyethyl)pyrimidin-5-yl]oxy}ethyl)-1,2-dihydrospiro[indole-3,4′-piperidin]-2-one], the figure is 756 nM.
Regarding `C[C@]1(O)C[C@@H](N2C(=O)OCc3cc(OCCN4CCC5(CC4)C(=O)Nc4ccc(Cl)cc45)cnc32)C1` [Compound 289, 5-chloro-1′-[2-({2-oxo-1-[(cis)-3-hydroxy-3-methylcyclobutyl]-1H,2H,4H-pyrido[2,3-d][1,3]oxazin-6-yl]oxy)ethyl]-1,2-dihydrospiro[indole-3,4′-piperidin]-2-one], the AC50 was found to be 552 nM.
